{"source": "patent US4803197A", "about": "“2,1-benzothiazepine-2,2-dioxide-5-carboxylic acid derivatives” (Ciba-Geigy Corporation, priority 1987, dated 1989)", "key": {"[1]": {"tested_on": "carrageenin pleurisy", "assay": "carrageenin-induced pleurisy model of inflammation in the rat", "assay_type": "in vivo", "settings": "10 mg/Kg p.o.", "procedure": "Antiinflammatory activity is determined by measuring the inhibition of the edema and of the mononuclear cell influx after oral administration in the rat model in which pleurisy is first induced by injecting carrageenin into the pleural cavity, e.g. according to A. P. Almeida et al., J. Pharmacol. Exp. Therap. 214, 74 (1980)."}, "[2]": {"tested_on": "leukotriene and 5-HETE formation", "assay": "leukotriene and 5-HETE formation in whole blood after oral administration in rats", "assay_type": "in vivo", "settings": "50 mg/Kg p.o.", "procedure": "Furthermore inhibition of the formation of leukotrienes and 5-HETE is determined e.g. by measuring their concentration in whole blood after oral administration in rats."}, "[3]": {"tested_on": "human neutrophils", "assay": "inhibition of binding of f-MLP to human neutrophils in vitro", "settings": "at a concentration of about 1×10^-6 M; sodium salt", "procedure": "The inhibition of the chemotactic activation of neutrophils is determined in vitro, e.g. by measuring the inhibition of the binding of f-MLP (formyl-methionylleucyl-phenylalanine) to human neutrophils in vitro as follows:\nHuman neutrophils are isolated by a modification of the procedure of Ferrante and Thong (J. Immunol. Methods 24:389, 1978). Red cells remaining in the neutrophil preparation are lysed by separate treatments with 0.83% NH4 Cl and 0.1M tris-HCl, pH 7.5. Neutrophils are incubated in Hanks' buffer at 0° C. for 60 minutes with 15 nM ^3 H-f-MLP and test compound. Aliquots of the incubates are filtered and total ^3 H-f-MLP bound is measured. Non-specific binding in the presence of excess non-radioactive f-MLP is substracted, and percent inhibition of binding by the test drug is calculated. Final concentrations of solvents such as dimethylacetamide or ethanol which may be used to dissolve the test compound cannot exceed 1% in the incubation mixture."}, "[4]": {"tested_on": "bovine nasal cartilage", "assay": "bovine nasal cartilage-synovium co-culture model of cartilage matrix degradation", "assay_type": "cell-based", "settings": "at a concentration of about 1×10^-5 M", "procedure": "The inhibition of cartilage matrix degradation can be determined in vitro in the bovine nasal cartilage-synovium co-culture model of cartilage matrix degradation which is carried out as follows:\nThe proteoglycan matrix of bovine nasal septum cartilage is labeled in vitro by incorporation of ^35 S into glycosaminoglycan. Cartilage slices are incubated overnight in a sulfate free medium containing ^35 S-sodium sulfate. ^35 S-Labeled cartilage slices are co-cultured with normal synovium explants in multiwell tissue culture plates. After 4 days incubation a 100μl aliquot of medium is counted. Cartilage slices are hydrolyzed and a 100μl aliquot of cartilage hydrolysate is counted. The percent ^35 S released into the medium is determined and the percent inhibition of matrix degradation is calculated."}, "[5]": {"tested_on": "accumulation of neutrophils", "assay": "accumulation of neutrophils into carrageenin-impregnated polyurethane sponges in the rat", "assay_type": "in vivo", "settings": "25 mg/Kg p.o.", "source_text": "The inhibition of the chemotactic activation of neutrophils can also be determined in vivo by measuring the inhibition of the accumulation of neutrophils into carrageenin impregnated polyurethane sponges after oral administration in the rat."}, "[6]": {"tested_on": "bovine nasal cartilage", "assay": "synovial catabolin-induced degradation of bovine nasal cartilage", "assay_type": "cell-based", "settings": "at a concentration of about 1×10^-5 M", "source_text": "The inhibition of cartilage matrix degradation can also be similarly determined by measuring the decrease in proteoglycan release on synovial catabolin-induced degradation of bovine nasal cartilage."}}, "data": [{"smiles": "O=C(Nc1ccc(Cl)cc1)C1=C(O)CS(=O)(=O)N(Cc2ccc(Cl)cc2)c2ccccc21.[Na]", "note": "[Example 2, N-(4-chlorophenyl)-1-(4-chlorophenylmethyl)-1,3-dihydro-4-hydroxy-2,1-benzothiazepine-5-carboxamide-2,2-dioxide sodium salt]", "values": [{"measurement": "inhibition of edema formation in the pleurisy model of inflammation", "setting": "[1]", "value": "significantly inhibits"}, {"measurement": "inhibition of mononuclear cell influx in the pleurisy model of inflammation", "setting": "[1]", "value": "significantly inhibits"}, {"measurement": "inhibition of 5-HETE formation in whole rat blood", "setting": "[2]", "value": "effectively inhibits"}, {"measurement": "inhibition of leukotriene formation in whole rat blood", "setting": "[2]", "value": "effectively inhibits"}, {"measurement": "inhibition of the binding of f-MLP to human neutrophils", "setting": "[3]", "value": "effective in inhibiting"}, {"measurement": "inhibition of release of proteoglycan in synovium-induced degradation of cartilage", "setting": "[4]", "value": "inhibits"}, {"measurement": "accumulation of neutrophils into carrageenin-impregnated sponges", "setting": "[5]", "value": "effectively diminishes"}, {"measurement": "inhibition of release of proteoglycan in catabolin-induced degradation of cartilage", "setting": "[6]", "value": "inhibits"}]}]}
